Test results as given in patent US20040228868A1, “Apo-2L receptor agonist and CPT-11 synergism” (Genentech, Inc., priority 1999, published 2004).

System: COLO205 colon carcinoma cells
Assay: COLO205 colon carcinoma xenograft tumor growth in athymic nude mice (Example 1)
Assay type: in vivo, human
Conditions: Apo-2L 30 mg/kg/day days 0-4 and 7-11, CPT-11 80 mg/kg/day days 0, 4, 8; for animals in which tumor growth resumed several days after the treatment period: of 9 mice per group
Experimental: The colon carcinoma cell line COLO205 (available from NCI) were grown and maintained according to the supplier's methods. Briefly, COLO205 cells were cultured in high glucose DMEM/F12 (50:50) media containing 10% fetal bovine serum and 2.0 mM-L-Glutamine. […] Cell-paste containing recombinant human soluble Apo-2L was extracted with a buffer containing 0.1M Tris/0.2M NaCl/50 mM EDTA, pH 8.0. The extract was precipitated by 40% ammonium sulfate. […] Purity was determined by sodium-dodecyl sulfate (SDS)-polyacrylamide gel electrophoresis and silver-nitrate or coomassie-blue staining, by amino acid sequence analysis, and by size-exclusion on high performance liquid chromatography (HPLC). CPT-11 (Camptosar®) was obtained from Pharmacia & Upjohn.
Athymic nude mice (Jackson Laboratories) were injected subcutaneously with 5 million COLO205 colon carcinoma cells and the tumors allowed to grow to about 120 mm^3. Tumor-bearing mice were randomized into 4 groups at 9 mice per group and treated with either vehicle (20 mM Tris, 8% Trehalose, 0.01 Tween-20, pH 7.5), Apo-2L (30 mg/kg/day on days 0-4 and 7-11), or CPT-11 (80 mg/kg/day on days 0, 4, and 8), or a combination of Apo-2L (30 mg/kg/day on days 0-4 and 7-11) plus CPT-11 (80 mg/kg/day on days 0, 4, and 8). Tumor volumes were determined at the indicated days over 34 days.

| Compound | animals in which tumor growth resumed several days after the treatment period | effect on tumor growth (tumor volume, FIG. 1) (s.c. COLO205 tumors about 120 mm^3, 9 mice per group, followed 34 days) |
| --- | --- | --- |
| Apo-2L: recombinant human soluble Apo-2L, extracellular portion amino acids 114-281, prepared in E. coli | 9 animals | suppressed tumor growth during the treatment period |
| CCc1c2c(nc3ccc(OC(=O)N4CCC(N5CCCCC5)CC4)cc13)-c1cc3c(c(=O)n1C2)COC(=O)[C@]3(O)CC.Cl.O.O.O [CPT-11, (4S)-4,11-diethyl-4-hydroxy-9-[(4-piperidino-piperidino)carbonyloxyl]-1H-pyrano[3′,4′:6,7]indolizino[1,2-b]quinoline-3,14(4H,12H)dione hydrochloride trihydrate] | 9 animals |  |
